Molecules are shown by their SMILES.

The target of assay [1] is T1, Amine oxidase [flavin-containing] A (Homo sapiens, UniProt P21397).
T1 sequence (P21397 whole entry): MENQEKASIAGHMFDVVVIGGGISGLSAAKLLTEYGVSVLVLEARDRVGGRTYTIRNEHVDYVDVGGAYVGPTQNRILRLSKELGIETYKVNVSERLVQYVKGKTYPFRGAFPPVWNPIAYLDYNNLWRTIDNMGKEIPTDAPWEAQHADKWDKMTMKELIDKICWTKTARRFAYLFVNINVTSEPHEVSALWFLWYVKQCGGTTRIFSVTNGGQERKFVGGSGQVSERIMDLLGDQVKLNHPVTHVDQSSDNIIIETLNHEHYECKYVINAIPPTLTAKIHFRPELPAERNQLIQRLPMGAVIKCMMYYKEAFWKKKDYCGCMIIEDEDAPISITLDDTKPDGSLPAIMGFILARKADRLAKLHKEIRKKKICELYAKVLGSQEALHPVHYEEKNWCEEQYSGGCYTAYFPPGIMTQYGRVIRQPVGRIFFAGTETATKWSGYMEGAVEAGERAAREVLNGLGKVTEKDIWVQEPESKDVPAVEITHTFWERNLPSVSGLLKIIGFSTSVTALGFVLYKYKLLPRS
Description: Inhibition of MAOA (unknown origin) by luminiscent assay

Assay [2] deals with T2, Amine oxidase [flavin-containing] B (Homo sapiens, UniProt P27338).
T2 sequence (P27338 whole entry): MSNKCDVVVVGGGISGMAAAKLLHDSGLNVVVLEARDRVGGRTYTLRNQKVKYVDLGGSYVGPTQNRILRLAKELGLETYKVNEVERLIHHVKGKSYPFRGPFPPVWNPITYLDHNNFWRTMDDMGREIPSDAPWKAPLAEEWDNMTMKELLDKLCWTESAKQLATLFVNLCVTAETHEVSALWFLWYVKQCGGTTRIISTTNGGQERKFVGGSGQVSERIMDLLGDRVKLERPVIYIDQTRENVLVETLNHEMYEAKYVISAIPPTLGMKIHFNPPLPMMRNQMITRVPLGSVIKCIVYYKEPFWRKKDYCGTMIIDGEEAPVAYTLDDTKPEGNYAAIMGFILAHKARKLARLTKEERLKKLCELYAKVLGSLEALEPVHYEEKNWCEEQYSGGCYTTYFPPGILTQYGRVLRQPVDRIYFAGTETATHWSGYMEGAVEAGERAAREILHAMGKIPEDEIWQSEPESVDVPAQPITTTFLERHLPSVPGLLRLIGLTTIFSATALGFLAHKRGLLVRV
Description: Inhibition of MAOB (unknown origin) by luminiscent assay

Broadly, the IC50 is the concentration that gives 50% inhibition. Lower therefore signals greater potency. Turning to `Nc1nnc(NCc2c(Cl)cccc2Oc2ccccc2)[nH]1`, the IC50 in assay [1] and in assay [2] was above 100 µM in each case.

For `COc1ccccc1CNc1n[nH]c(NCc2ccccc2OC)n1`, the IC50 in assay [1] and in assay [2] was above 100 µM each time.

The record behind these values is ChEMBL document CHEMBL3621154 (Medchemcomm, 2014).
